Structures are written as SMILES. The source made the active and inactive calls. The calls are words filed in the database; no cut-off is given here.

One series has as its system SK-OV-3. Nature of the series: Antiinvasive activity against human SKOV3 cells assessed as inhibition of LPA-stimulated cell invasion at 100 ng/ml by matrigel based assay. Format: functional.
Series [1] is described as follows: Inhibition of nonspecific gene transcription in human PC3 cells transfected with Galpha12QL activator at 10 uM incubated for 19 hrs by PRL-TK luciferase based dual luciferase reporter gene assay. Format: cell-based, PC-3. (In general: In a reporter assay the amount or activity of a reporter protein is the signal.)
In series [2] the test system is PC-3. Nature of the series: Cytotoxicity against human PC3 cells assessed as inhibition of cell cell viability at 10 uM incubated for 19 hrs by WST1 based assay relative to control. The following applies: for inhibition at 10 µM: PC-3, 19 h. The class given is functional. In general terms: Tetrazolium dyes change colour on reduction, which living cells bring about.

For series [3], the species on record is Homo sapiens. Description: Inhibition of rho-mediated gene transcription in human PC3 cells transfected with Galpha12QL activator at 100 uM incubated for 19 hrs by SRE.L-firefly luciferase based dual luciferase reporter gene assay relative to control. The class given is cell-based.
The species named for series [4] is Homo sapiens. Description: Inhibition of rho-mediated gene transcription in human PC3 cells transfected with Galpha12QL activator at 10 uM incubated for 19 hrs by SRE.L-firefly luciferase based dual luciferase reporter gene assay relative to control. Format: cell-based.
Series [5] concerns PC-3. Nature of the series: Cytotoxicity against human PC3 cells assessed as inhibition of cell cell viability at 100 uM incubated for 19 hrs by WST1 based assay relative to control. The class given is functional. The following applies: for inhibition at 100 µM: PC-3, 19 h.
Series [6] in a line: Inhibition of rho-mediated gene transcription in human PC3 cells transfected with Galpha12QL activator incubated for 19 hrs by SRE.L-firefly luciferase based dual luciferase reporter gene assay. Format: cell-based. The following applies: PC-3, 19 h.
Series [7] can be described thus: Inhibition of nonspecific gene transcription in human PC3 cells transfected with Galpha12QL activator at 100 uM incubated for 19 hrs by PRL-TK luciferase based dual luciferase reporter gene assay. The class given is cell-based, PC-3.
In series [8] the test system is PC-3. Description: Antiinvasive activity against human PC3 cells assessed as inhibition of LPA-stimulated cell invasion at 3 umol/L by matrigel based assay. The class given is functional.
A further series concerns WI-38. Description: Antiproliferative activity against human WI38 cells assessed as inhibition of LPA-stimulated cell proliferation at 0.3 mmol/L and measured on day 8 by WST1 based assay. The following applies: wi-38, 300 µM.
The species entered for series [9] is Homo sapiens. Nature of the series: Antiproliferative activity against human A375M2 cells assessed as inhibition of LPA-stimulated cell proliferation at 0.3 mmol/L and measured on day 8 by WST1 based assay. Format: functional.
Series [10] has as its system PC-3. Description: Antiproliferative activity against human PC3 cells assessed as inhibition of LPA-stimulated cell proliferation incubated for 27 hrs by BrdUrd incorporation assay. Format: functional, cell-based.
The subject of a further series is SK-MEL-28. Nature of the series: Antiproliferative activity against human SK-MEL-28 cells assessed as inhibition of LPA-stimulated cell proliferation at 0.3 mmol/L and measured on day 8 by WST1 based assay. Format: functional.
The subject of the next series is SK-MEL-147. Nature of the series: Antiproliferative activity against human SK-MEL-147 cells assessed as inhibition of LPA-stimulated cell proliferation at 0.3 mmol/L and measured on day 8 by WST1 based assay. Format: functional.
The subject of another series is A-375. Description: Antiproliferative activity against human A375 cells assessed as inhibition of LPA-stimulated cell proliferation at 0.3 mmol/L and measured on day 8 by WST1 based assay. The class given is functional.

Consider `CC(=O)O[C@H]1C(=O)[C@@]2(C)[C@H]([C@H](OC(=O)c3ccccc3)[C@]3(O)C[C@H](OC(=O)[C@H](O)[C@@H](NC(=O)c4ccccc4)c4ccccc4)C(C)=C1C3(C)C)[C@]1(OC(C)=O)CO[C@@H]1C[C@@H]2O`, for which the inhibition result in the series with SK-OV-3 is “Active”.
The compound `O=C(Nc1ccccc1C(=O)Nc1ccc(Cl)cc1)c1cc(C(F)(F)F)cc(C(F)(F)F)c1` yielded an inhibition at 19 h, 10 µM in [1] of 0%.
With `O=C(CONC(=O)c1ccccc1)Nc1ccc(Cl)cc1`, the inhibition result in the series with PC-3 [2], in the series listed under Homo sapiens [3], in the series listed under Homo sapiens [4] and in the series with PC-3 [5] was “inactive” throughout. Also, the IC50 in series [6] is over 100 µM.
Consider `O=C(CONC(=O)c1ccc(C(F)(F)F)cc1)Nc1ccc(Cl)cc1`, for which, in series [7], the inhibition at 19 h, 100 µM is 0%. Further, the results for the inhibition in the series filed under Homo sapiens [3] and in the series filed under Homo sapiens [4] were 91% and 26%, respectively. Also, the inhibition at 19 h, 10 µM in series [1] came out at 6%. Besides, the IC50 in series [6] came to 29 µM.
Consider `O=C(CONC(=O)c1cc(C(F)(F)F)cc(C(F)(F)F)c1)Nc1ccccc1`, for which the inhibition at 19 h, 100 µM in series [7] was determined as 59%. For the same compound, the inhibition in the series filed under Homo sapiens [3] turned out to be 65%; in the series filed under Homo sapiens [4], 13%. The inhibition at 19 h, 10 µM in series [1] turned out to be 33%. This compound also showed an IC50 in [6] of 36 µM.
`O=C(CC1CCCCN1C(=O)c1cc(C(F)(F)F)cc(C(F)(F)F)c1)Nc1ccc(Cl)cc1` (configuration not stated) returned an inhibition at 19 h, 10 µM in [1] of 0%.
For the compound `O=C(CCCCNC(=O)c1cc(C(F)(F)F)cc(C(F)(F)F)c1)Nc1ccc(Cl)cc1`, in the series on PC-3 [2], the inhibition at 10 µM was 0%. Moreover, the inhibition at 19 h, 100 µM in series [7] was 10%. In addition, the inhibition came out at 12% in the series listed under Homo sapiens [3] and 0% in the series listed under Homo sapiens [4]. Also, in the series on PC-3 [5], the inhibition at 100 µM turned out to be 0%. Also, the inhibition at 19 h, 10 µM in series [1] was found to be 0%. The compound further yielded an IC50 in series [6] of over 100 µM.
For `CN(CCNC(=O)c1cc(C(F)(F)F)cc(C(F)(F)F)c1)C(=O)c1ccc(Cl)cc1`, in the series with PC-3 [2], the inhibition at 10 µM stood at 0%. The same compound displayed an inhibition at 19 h, 100 µM in [7] of 10%. Further, the inhibition in the series filed under Homo sapiens [3] came to 25%; in the series listed under Homo sapiens [4] it was 20%. The inhibition at 100 µM with PC-3 [5] was found to be 0%. Moreover, in series [1], the inhibition at 19 h, 10 µM is 0%. In series [6], the IC50 was over 1000 µM.
`O=C(CCNC(=O)c1cc(C(F)(F)F)cc(C(F)(F)F)c1)Nc1ccc(Cl)cc1` showed an inhibition at 19 h, 100 µM in series [7] of 15 to 22%. The inhibition in the series listed under Homo sapiens [3] lay within 64 to 66%; in the series listed under Homo sapiens [4], 38 to 44%. Besides, in the series with PC-3 [5], the inhibition at 100 µM is 6 to 10%. In addition, in series [6], the IC50 lay within 25 to 38 µM.
In series [7], `O=C(CONC(=O)c1cccc(C(F)(F)F)c1)Nc1ccc(Cl)cc1` registered an inhibition at 19 h, 100 µM of 19%. The inhibition in the series filed under Homo sapiens [3] came to 86%; in the series filed under Homo sapiens [4] it was 25%. Moreover, the inhibition at 19 h, 10 µM in series [1] worked out at 5%. In series [6], this compound displayed an IC50 of 27 µM.
For `CC(ONC(=O)c1cc(C(F)(F)F)cc(C(F)(F)F)c1)C(=O)Nc1ccc(Cl)cc1` (configuration not stated), the inhibition entry in the series with PC-3 [8], in the series listed under Homo sapiens [9], in the series with PC-3 [10], with SK-MEL-28, in the series on SK-MEL-147 and in the series with A-375 was “Active” throughout. In addition, the inhibition at 10 µM in the series on PC-3 [2] is 44%. The Activity entry in the series on WI-38 is given as “Non-Toxic”. In the series listed under Homo sapiens [4], this compound had an inhibition of 74%. Further, the inhibition at 19 h, 10 µM in series [1] is 48%.

A word on the inhibition: it is the change of the read-out against control, counted positive when it falls. The IC50 is the concentration that inhibits the measured activity by half. A higher IC50 goes with weaker potency.

The record behind these values is ChEMBL document CHEMBL4418480, “Methods and compositions for modulating rho-mediated gene transcription” (2012).
